Results from the NIST ThermoML archive (doi:10.1016/j.fluid.2009.11.007).
± gives the expanded uncertainty stated by the source.

Experiment: xn = mol fraction of the nth substance listed
Settings: Gas, Vibrating tube method

CCCCCCCCCCCCCCCC(=O)O [hexadecanoic acid] + O=C=O
Settings | mass density [kg/m3]
313 K, 12110 kPa, x1 = 0.0003534 | 724.5 ± 1
313 K, 12150 kPa, x1 = 0.0003534 | 725.8 ± 1
313 K, 12360 kPa, x1 = 0.0003534 | 731.2 ± 0.5
313 K, 12530 kPa, x1 = 0.0003534 | 735.3 ± 0.5
313 K, 12770 kPa, x1 = 0.0003534 | 741 ± 0.5
313 K, 12930 kPa, x1 = 0.0003534 | 744.7 ± 0.5
313 K, 13150 kPa, x1 = 0.0003534 | 749.3 ± 0.5
313 K, 13330 kPa, x1 = 0.0003534 | 753 ± 0.5
313 K, 13680 kPa, x1 = 0.0003534 | 759.8 ± 0.5
313 K, 13940 kPa, x1 = 0.0003534 | 764.4 ± 0.5
313 K, 14120 kPa, x1 = 0.0003534 | 767.7 ± 0.5
313 K, 14410 kPa, x1 = 0.0003534 | 772.7 ± 0.5
313 K, 14570 kPa, x1 = 0.0004968 | 774.5 ± 0.5
313 K, 14650 kPa, x1 = 0.0003534 | 776.6 ± 0.5
313 K, 14940 kPa, x1 = 0.0005357 | 780.5 ± 0.4
313 K, 14960 kPa, x1 = 0.0004968 | 780.9 ± 0.5
313 K, 15030 kPa, x1 = 0.0003534 | 782.7 ± 0.5
313 K, 15570 kPa, x1 = 0.0003534 | 790.5 ± 0.5
313 K, 15970 kPa, x1 = 0.0004968 | 795.6 ± 0.5
313 K, 16020 kPa, x1 = 0.0005357 | 795.7 ± 0.6
313 K, 16050 kPa, x1 = 0.0003534 | 797 ± 0.5
313 K, 16230 kPa, x1 = 0.0005357 | 798.5 ± 0.5
313 K, 16430 kPa, x1 = 0.0005357 | 801.3 ± 0.5
313 K, 16610 kPa, x1 = 0.0005357 | 803.4 ± 0.5
313 K, 16820 kPa, x1 = 0.0005357 | 806 ± 0.5
313 K, 17030 kPa, x1 = 0.0005357 | 808.5 ± 0.5
313 K, 17040 kPa, x1 = 0.0003534 | 810.1 ± 0.5
313 K, 17070 kPa, x1 = 0.0006302 | 809.1 ± 0.5
313 K, 17120 kPa, x1 = 0.0004968 | 810 ± 0.5
313 K, 17500 kPa, x1 = 0.0006302 | 814.3 ± 0.5
313 K, 17610 kPa, x1 = 0.0006348 | 816.9 ± 0.5
313 K, 17620 kPa, x1 = 0.0004968 | 815.9 ± 0.5
313 K, 17810 kPa, x1 = 0.0006348 | 819 ± 0.5
313 K, 17970 kPa, x1 = 0.0006302 | 819.5 ± 0.5
313 K, 18010 kPa, x1 = 0.0006348 | 821 ± 0.5
313 K, 18030 kPa, x1 = 0.0003534 | 821.3 ± 0.5
313 K, 18050 kPa, x1 = 0.0004968 | 820.6 ± 0.5
313 K, 18070 kPa, x1 = 0.0005357 | 820 ± 0.5
313 K, 18180 kPa, x1 = 0.0006348 | 823.1 ± 0.5
313 K, 18300 kPa, x1 = 0.0006348 | 824.3 ± 0.5
313 K, 18400 kPa, x1 = 0.0006348 | 825.2 ± 0.6
313 K, 18510 kPa, x1 = 0.0006348 | 826.4 ± 0.6
313 K, 18600 kPa, x1 = 0.0006348 | 827.4 ± 0.5
313 K, 18700 kPa, x1 = 0.0006348 | 828.4 ± 0.5
313 K, 18790 kPa, x1 = 0.0006348 | 829.4 ± 0.5
313 K, 18910 kPa, x1 = 0.0006348 | 830.6 ± 0.5
313 K, 18990 kPa, x1 = 0.0006302 | 830.2 ± 0.6
313 K, 19000 kPa, x1 = 0.0004968 | 830.5 ± 0.6
313 K, 19040 kPa, x1 = 0.0003534 | 831.8 ± 0.6
313 K, 19070 kPa, x1 = 0.0005357 | 830.9 ± 0.5
313 K, 19070 kPa, x1 = 0.0006348 | 832.2 ± 0.5
313 K, 19960 kPa, x1 = 0.0004968 | 839.8 ± 0.6
313 K, 19990 kPa, x1 = 0.0006302 | 839.7 ± 0.6
313 K, 20050 kPa, x1 = 0.0003534 | 841.4 ± 0.6
313 K, 20060 kPa, x1 = 0.0005357 | 840.4 ± 0.6
313 K, 20090 kPa, x1 = 0.0006348 | 841.8 ± 0.6
313 K, 20150 kPa, x1 = 0.0007923 | 843.3 ± 0.6
313 K, 20300 kPa, x1 = 0.0007923 | 844.6 ± 0.6
313 K, 20540 kPa, x1 = 0.0007923 | 846.7 ± 0.6
313 K, 20740 kPa, x1 = 0.0007923 | 848.5 ± 0.6
313 K, 20940 kPa, x1 = 0.0007923 | 850.2 ± 0.6
313 K, 21000 kPa, x1 = 0.0006302 | 848.7 ± 0.4
313 K, 21010 kPa, x1 = 0.0006348 | 849.8 ± 0.4
313 K, 21020 kPa, x1 = 0.0004968 | 849.3 ± 0.6
313 K, 21040 kPa, x1 = 0.0003534 | 850.3 ± 0.6
313 K, 21050 kPa, x1 = 0.0005357 | 849.1 ± 0.6
313 K, 21120 kPa, x1 = 0.0007923 | 851.7 ± 0.6
313 K, 21300 kPa, x1 = 0.0007923 | 853.3 ± 0.6
313 K, 21520 kPa, x1 = 0.0007923 | 855 ± 0.7
313 K, 21700 kPa, x1 = 0.0008682 | 855 ± 0.7
313 K, 21710 kPa, x1 = 0.0007923 | 856.7 ± 0.6
313 K, 21970 kPa, x1 = 0.0007923 | 858.7 ± 0.6
313 K, 21980 kPa, x1 = 0.0003534 | 858 ± 0.6
313 K, 22020 kPa, x1 = 0.0004968 | 857.5 ± 0.6
313 K, 22020 kPa, x1 = 0.0006348 | 858.2 ± 0.6
313 K, 22020 kPa, x1 = 0.0008682 | 857.3 ± 0.6
313 K, 22030 kPa, x1 = 0.0005357 | 857.3 ± 0.6
313 K, 22050 kPa, x1 = 0.0006302 | 857.5 ± 0.6
313 K, 22230 kPa, x1 = 0.0007923 | 860.8 ± 0.6
313 K, 22470 kPa, x1 = 0.0008682 | 861 ± 0.6
313 K, 22650 kPa, x1 = 0.0007923 | 864 ± 0.6
313 K, 22790 kPa, x1 = 0.0004968 | 863.5 ± 0.6
313 K, 22910 kPa, x1 = 0.0007923 | 865.9 ± 0.6
313 K, 22930 kPa, x1 = 0.0008981 | 864.8 ± 0.7
313 K, 22990 kPa, x1 = 0.0003534 | 866 ± 0.6
313 K, 23000 kPa, x1 = 0.0006302 | 864.9 ± 0.6
313 K, 23030 kPa, x1 = 0.0005357 | 865.1 ± 0.6
313 K, 23050 kPa, x1 = 0.0006348 | 866 ± 0.6
313 K, 23070 kPa, x1 = 0.0008682 | 865.7 ± 0.5
313 K, 23280 kPa, x1 = 0.0008981 | 867.3 ± 0.6
313 K, 23520 kPa, x1 = 0.0007923 | 868.9 ± 0.6
313 K, 23550 kPa, x1 = 0.0008682 | 869.1 ± 0.6
313 K, 23570 kPa, x1 = 0.0008981 | 869.5 ± 0.6
313 K, 23790 kPa, x1 = 0.0006348 | 871.5 ± 0.6
313 K, 23810 kPa, x1 = 0.0008981 | 871.1 ± 0.6
313 K, 23990 kPa, x1 = 0.0005357 | 872.2 ± 0.6
313 K, 24000 kPa, x1 = 0.0006302 | 872.3 ± 0.6
313 K, 24010 kPa, x1 = 0.0004968 | 872.7 ± 0.6
313 K, 24010 kPa, x1 = 0.0008981 | 872.6 ± 0.5
313 K, 24020 kPa, x1 = 0.0007923 | 871.6 ± 0.6
313 K, 24040 kPa, x1 = 0.0008682 | 872.7 ± 0.6
313 K, 24050 kPa, x1 = 0.0003534 | 873.7 ± 0.6
313 K, 24460 kPa, x1 = 0.0008682 | 875.8 ± 0.6
313 K, 24640 kPa, x1 = 0.0005357 | 876.7 ± 0.7
313 K, 24740 kPa, x1 = 0.0006302 | 877.4 ± 0.6
313 K, 24780 kPa, x1 = 0.0008981 | 877.9 ± 0.6
313 K, 25030 kPa, x1 = 0.0004968 | 879.6 ± 0.7
318 K, 10140 kPa, x1 = 0.0001436 | 535.9 ± 1.3
318 K, 10290 kPa, x1 = 0.0001436 | 551.9 ± 1.3
318 K, 10550 kPa, x1 = 0.0001436 | 577.8 ± 1.2
318 K, 10890 kPa, x1 = 0.0001436 | 604.2 ± 1.2
318 K, 11230 kPa, x1 = 0.0001436 | 626.2 ± 1.2
318 K, 11520 kPa, x1 = 0.0001436 | 641.2 ± 1.2
318 K, 11870 kPa, x1 = 0.0001436 | 657.3 ± 1.2
318 K, 12190 kPa, x1 = 0.0001436 | 670.6 ± 1.2
318 K, 12480 kPa, x1 = 0.0001436 | 680.9 ± 1.2
318 K, 12820 kPa, x1 = 0.0001436 | 692 ± 1.2
318 K, 13110 kPa, x1 = 0.0001436 | 700.3 ± 1.2
318 K, 13390 kPa, x1 = 0.0001436 | 708.3 ± 1.3
318 K, 13730 kPa, x1 = 0.0001436 | 716.8 ± 1.3
318 K, 14030 kPa, x1 = 0.0001436 | 723.9 ± 1.3
318 K, 14520 kPa, x1 = 0.0001436 | 734.8 ± 1.3
318 K, 14990 kPa, x1 = 0.0001436 | 744 ± 1.3
318 K, 16050 kPa, x1 = 0.0001436 | 762.8 ± 0.6
318 K, 17010 kPa, x1 = 0.0001436 | 777.4 ± 0.6
318 K, 17690 kPa, x1 = 0.0001436 | 786.8 ± 0.5
318 K, 18080 kPa, x1 = 0.0001436 | 791.8 ± 0.5
318 K, 18990 kPa, x1 = 0.0001436 | 802.8 ± 0.5
318 K, 19750 kPa, x1 = 0.0001436 | 811.4 ± 0.5
318 K, 21720 kPa, x1 = 0.001828 | 831.3 ± 0.5
318 K, 21990 kPa, x1 = 0.001828 | 833.9 ± 0.5
318 K, 22510 kPa, x1 = 0.001828 | 838.4 ± 0.5
318 K, 23010 kPa, x1 = 0.001828 | 842.7 ± 0.5
318 K, 23350 kPa, x1 = 0.001112 | 845.5 ± 0.6
318 K, 23520 kPa, x1 = 0.001828 | 846.9 ± 0.6
318 K, 23920 kPa, x1 = 0.001112 | 849.8 ± 0.6
318 K, 24050 kPa, x1 = 0.001112 | 850.8 ± 0.6
318 K, 24050 kPa, x1 = 0.001828 | 850.9 ± 0.6
318 K, 24090 kPa, x1 = 0.001112 | 851.1 ± 0.6
318 K, 24270 kPa, x1 = 0.001112 | 852.5 ± 0.6
318 K, 24430 kPa, x1 = 0.001112 | 853.7 ± 0.6
318 K, 24510 kPa, x1 = 0.001112 | 854.2 ± 0.6
318 K, 24560 kPa, x1 = 0.001828 | 854.7 ± 0.6
318 K, 24610 kPa, x1 = 0.001112 | 855 ± 0.6
318 K, 24770 kPa, x1 = 0.001112 | 856.3 ± 0.6
318 K, 24930 kPa, x1 = 0.001112 | 857.5 ± 0.6
318 K, 25040 kPa, x1 = 0.001112 | 858.3 ± 0.6
